Values quoted from earlier work in PMC9328939, “A Randomized Double‐Blind Placebo‐Controlled First‐In‐Human Phase 1 Trial of TransCon PTH in Healthy Adults” (Journal of Bone and Mineral Research, 2020).

Legend:
PTH/PTHrP receptor = settings: stated without data; no reference given; cited from earlier work
healthy volunteers = settings: sCa raised comparably to a calcium clamp (10.3 mg/dL; FECa 6.0% to 7.0%) by infusion of PTHrP(1-36); cited from earlier work
Excerpt: TransCon PTH may also positively impact hypercalciuria, a major cause of morbidity in patients with HP.

[1] = short-acting PTH(1-84); cited from earlier work
Excerpt: The TransCon PTH bone turnover data are similar to the published literature, which illustrate that continuous PTH administration is not anabolic. […] TransCon PTH did modestly and transiently increase the bone resorption marker, serum CTx, consistent with t ...

With “PTH(1‐33): metabolite of PTH(1-34) shortened by a single amino acid; part of Free PTH (SVSEIQLMHNLGKHLNSMERVEWLRKKLQDVHN; Parathyroid hormone; UniProt P01270 32-64, looked up, fragment)” as the molecule, how does the “potency at the PTH/PTHrP receptor relative to PTH(1-34)” value (PTH/PTHrP receptor) read?
Its value is “equipotency”.

Which FECa (healthy volunteers) does the source give for “PTHrP(1‐36): parathyroid hormone-related protein fragment infused in healthy volunteers in a literature study” here?
Its FECa is “did not differ from normal controls”.

B1: PTH(1‐84): parathyroid hormone for injection, once-daily short-acting rhPTH(1-84) (protein, UniProt P01270 32-115, looked up)
Parathyroid hormone: SVSEIQLMHNLGKHLNSMERVEWLRKKLQDVHNFVALGAPLAPRDAGSQRPRKKEDNVLVESHEKSLGEADKADVNVLTKAKSQ
modifications: Parathyroid hormone
Which “persistent increase in CTx” value [1] does the source give for B1 here?
The value was 200%.
